# Test results taken from patent EP4667458A1 (Kanaph Therapeutics Inc., priority 2023, dated 2024).
# Molecular target: T1, SOS1 (Homo sapiens, UniProt Q07889)
# T1 construct: adding equal amounts of HIS-SOS1cat (160 nM; Cytoskeleton, US); His; purchased Cytoskeleton, US
# T1 sequence (Q07889 564-1049 limits assumed): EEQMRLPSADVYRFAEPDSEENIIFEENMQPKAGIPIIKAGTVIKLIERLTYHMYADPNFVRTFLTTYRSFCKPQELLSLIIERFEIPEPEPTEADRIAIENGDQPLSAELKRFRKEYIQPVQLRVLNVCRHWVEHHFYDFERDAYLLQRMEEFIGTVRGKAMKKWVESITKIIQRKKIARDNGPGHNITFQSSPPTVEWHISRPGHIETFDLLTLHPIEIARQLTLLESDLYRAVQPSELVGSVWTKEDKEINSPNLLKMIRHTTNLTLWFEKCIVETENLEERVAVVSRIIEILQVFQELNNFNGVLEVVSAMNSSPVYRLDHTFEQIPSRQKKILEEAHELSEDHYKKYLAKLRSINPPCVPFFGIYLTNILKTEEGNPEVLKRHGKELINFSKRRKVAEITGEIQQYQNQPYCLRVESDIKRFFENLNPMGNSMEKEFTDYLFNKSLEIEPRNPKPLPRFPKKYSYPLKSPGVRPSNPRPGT
# Assay: SOS-catalyzed nucleotide exchange assay (HTRF, SOS1-mediated GTP loading of KRAS G12D)
# Type: biochemical
# Conditions: GST-KRAS G12D, HIS-SOS1cat, EDA-GTP-DY-647P1; compound 128 pM to 10 µM; read-out: SOS-catalyzed nucleotide exchange assay (IC50 range, Grade)
# Outline: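 SOS1cat (HIS-tagged) preincubated 10 min at room temperature with compound (128 pM-10 µM), then GST-KRAS G12D with anti-GST terbium added; GTP loading tracked as HTRF with a DY-647P1 GTP analogue after 30 min, buffer HEPES pH 7.4. GEF-free wells for normalization; IC50 derived.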
row,SMILES,IC50 [nM]
1,"C[C@@H](NC(=O)c1ccc(=O)n(-c2ccccc2)n1)c1ccc2ccccc2c1 [Example 8, N-[(1R)-1-(2-naphthyl)ethyl]-6-oxo-1-phenyl-pyridazine-3-carboxamide]",1000 to 10000
2,"C[C@@H](NC(=O)c1ccc(=O)n(-c2ccccc2)n1)c1cccc(C2CC2)c1 [Example 14, N-[(1R)-1-(3-cyclopropylphenyl)ethyl]-6-oxo-1-phenyl-pyridazine-3-carboxamide]",1000 to 10000
3,"C[C@@H](NC(=O)c1ccc(=O)n(-c2cccc(S(C)(=O)=O)c2)n1)c1cc(N)cc(C(F)(F)F)c1 [Example 37, N-[(1R)-1-[3-amino-5-(trifluoromethyl)phenyl]ethyl]-1-(3-methylsulfonylphenyl)-6-oxo-pyridazine-3-carboxamide]",< 1000
4,"CC(=O)Nc1cc(-n2cc(C(=O)N[C@H](C)c3cc(N)cc(C(F)(F)F)c3)ccc2=O)ccc1F [Example 113, 1-(3-acetamido-4-fluoro-phenyl)-N-[(1R)-1-[3-amino-5-(trifluoromethyl)phenyl]ethyl]-6-oxo-pyridine-3-carboxamide]",< 1000
5,"C[C@@H](NC(=O)c1ccc(=O)n(-c2cccc(NC(=O)C3CC3)c2)c1)c1cc(N)cc(C(F)(F)F)c1 [Example 130, N-[(1R)-1-[3-amino-5-(trifluoromethyl)phenyl]ethyl]-1-(3-cyclopropaneamidophenyl)-6-oxo-1,6-dihydropyridine-3-carboxamide]",< 1000
6,"Cc1ccc([C@@H](C)NC(=O)c2ccc(=O)n(-c3ccccc3)n2)cc1 [Example 7, (R)-6-oxo-1-phenyl-N-(1-(p-tolyl)ethyl)-1,6-dihydropyridazine-3-carboxamide]",> 10000
7,"C[C@@H](NC(=O)c1ccc(=O)n(-c2ccccc2S(C)(=O)=O)n1)c1cc(N)cc(C(F)(F)F)c1 [Example 28, (R)-N-(1-(3-amino-5-(trifluoromethyl)phenyl)ethyl)-1-(2-(methylsulfonyl)phenyl)-6-oxo-1,6-dihydropyridazine-3-carboxamide]",> 10000
8,"Cc1cccc([C@@H](C)NC(=O)c2ccc(=O)n(-c3ccccc3)n2)c1 [Example 3, (R)-6-oxo-1-phenyl-N-(1-(m-tolyl)ethyl)-1,6-dihydropyridazine-3-carboxamide]",> 10000
9,"C[C@@H](NC(=O)c1ccc(=O)n(C2CC2)n1)c1cc(N)cc(C(F)(F)F)c1 [Example 64, N-[(1R)-1-[3-amino-5-(trifluoromethyl)phenyl]ethyl]-1-cyclopropyl-6-oxo-1,6-dihydropyridazine-3-carboxamide]",1000 to 10000
10,"C[C@@H](NC(=O)c1ccc(=O)n(C2=CCOCC2)n1)c1cc(N)cc(C(F)(F)F)c1 [Example 128, N-[(1R)-1-[3-amino-5-(trifluoromethyl)phenyl]ethyl]-1-(3,6-dihydro-2H-pyran-4-yl)-6-oxo-1,6-dihydropyridazine-3-carboxamide]",< 1000
11,"C[C@@H](NC(=O)c1ccc(=O)n(-c2ccccc2)n1)c1cccc(Oc2ccccc2)c1 [Example 13, 6-oxo-N-[(1R)-1-(3-phenoxyphenyl)ethyl]-1-phenyl-pyridazine-3-carboxamide]",< 1000
12,"COc1ccc(-n2nc(C(=O)N[C@H](C)c3cc(N)cc(C(F)(F)F)c3)ccc2=O)cc1 [Example 30, N-[(1R)-1-[3-amino-5-(trifluoromethyl)phenyl]ethyl]-1-(4-methoxyphenyl)-6-oxo-pyridazine-3-carboxamide]",< 1000
13,"C[C@@H](NC(=O)c1ccc(=O)n(-c2ccccn2)n1)c1cc(N)cc(C(F)(F)F)c1 [Example 20, N-[(1R)-1-[3-amino-5-(trifluoromethyl)phenyl]ethyl]-6-oxo-1-(2-pyridyl)pyridazine-3-carboxamide]",< 1000
14,"C[C@@H](NC(=O)c1ccc(=O)n(C2CCOCC2)n1)c1cccc(Cl)c1 [Example 17, N-[(1R)-1-(3-chlorophenyl)ethyl]-6-oxo-1-tetrahydropyran-4-yl-pyridazine-3-carboxamide]",1000 to 10000
15,"C[C@@H](NC(=O)c1ccc(=O)n(C2CCCCC2)n1)c1cc(N)cc(C(F)(F)F)c1 [Example 116, N-[(1R)-1-[3-amino-5-(trifluoromethyl)phenyl]ethyl]-1-cyclohexyl-6-oxo-1,6-dihydropyridazine-3-carboxamide]",1000 to 10000
16,"C[C@@H](NC(=O)c1cc(C#N)c(=O)n(-c2ccccc2)n1)c1cc(N)cc(C(F)(F)F)c1 [Example 56, N-[(1R)-1-[3-amino-5-(trifluoromethyl)phenyl]ethyl]-5-cyano-6-oxo-1-phenyl-pyridazine-3-carboxamide]",< 1000
17,"C[C@@H](NC(=O)c1cc(O)c(=O)n(-c2ccccc2)n1)c1cc(N)cc(C(F)(F)F)c1 [Example 48, (R)-N-(1-(3-amino-5-(trifluoromethyl)phenyl)ethyl)-5-hydroxy-6-oxo-1-phenyl-1,6-dihydropyridazine-3-carboxamide]",1000 to 10000
18,"Cc1ccccc1-n1nc(C(=O)N[C@H](C)c2cc(N)cc(C(F)(F)F)c2)ccc1=O [Example 41, N-[(1R)-1-[3-amino-5-(trifluoromethyl)phenyl]ethyl]-1-(o-tolyl)-6-oxo-pyridazine-3-carboxamide]",< 1000
19,"C[C@@H](NC(=O)c1ccc(=O)n(-c2cccc(N3CCN(C)C3=O)c2)c1)c1cc(N)cc(C(F)(F)F)c1 [Example 89, N-[(1R)-1-[3-amino-5-(trifluoromethyl)phenyl]ethyl]-1-[3-(3-methyl-2-oxo-imidazolidin-1-yl)phenyl]-6-oxo-pyridine-3-carboxamide]",< 1000
20,"C[C@@H](NC(=O)c1ccc(=O)n(-c2ccccc2)n1)c1cccc2ccccc12 [Example 9, N-[(1R)-1-(1-naphthyl)ethyl]-6-oxo-1-phenyl-pyridazine-3-carboxamide]",1000 to 10000
21,"C[C@@H](NC(=O)c1ccc(=O)n(C2=CCN(C)CC2)n1)c1cc(N)cc(C(F)(F)F)c1 [Example 126, N-[(1R)-1-[3-amino-5-(trifluoromethyl)phenyl]ethyl]-1-(1-methyl-1,2,3,6-tetrahydropyridin-4-yl)-6-oxo-1,6-dihydropyridazine-3-carboxamide]",< 1000
22,"C#Cc1cc(=O)n(-c2ccccc2)nc1C(=O)N[C@H](C)c1cc(N)cc(C(F)(F)F)c1 [Example 50, N-[(1R)-1-[3-amino-5-(trifluoromethyl)phenyl]ethyl]-4-ethynyl-6-oxo-1-phenyl-pyridazine-3-carboxamide]",1000 to 10000
23,"C[C@@H](NC(=O)c1ccc(=O)n(-c2ccccc2)n1)c1ccc(Br)cc1 [Example 6, (R)-N-(1-(4-bromophenyl)ethyl)-6-oxo-1-phenyl-1,6-dihydropyridazine-3-carboxamide]",> 10000
24,"C[C@@H](NC(=O)c1ccc(=O)n(-c2ccccc2)n1)c1cccc([Si](C)(C)C)c1 [Example 61, 6-oxo-1-phenyl-N-[(1R)-1-(3-trimethylsilylphenyl)ethyl]pyridazine-3-carboxamide]",1000 to 10000
25,"C[C@@H](NC(=O)c1ccc(=O)n(-c2cccc(NS(C)(=O)=O)c2)n1)c1cc(N)cc(C(F)(F)F)c1 [Example 34, (R)-N-(1-(3-amino-5-(trifluoromethyl)phenyl)ethyl)-1-(3-(methylsulfonamido)phenyl)-6-oxo-1,6-dihydropyridazine-3-carboxamide]",1000 to 10000
